Source: patent EP1140984B1, “SELECTIVE INHIBITORS OF MMP-12” (Aventis Pharmaceuticals Inc., priority 1998, dated 2000)
Where a name gives a salt, the structure may show the parent alone.

Experiments:
MMP-2 = molecular target: T1, MMP-2 (Homo sapiens, UniProt P08253); assay: Determination of inhibition constant (Ki) for MMP-2, fluorogenic substrate assay; format: biochemical; details: substrate Mca-Pro-Leu-Gly-Leu-Dpa-Ala-Arg-NH2, 37°C, pH 7.6, [S] = 1 µM, [MMP-2] = 0.4 nM
T1 construct: made in house; host or cells: Pichia pastoris (strains KM71 / SMD1168, clone 24S; vector pHIL-D2)
T1 sequence (P08253 110-660): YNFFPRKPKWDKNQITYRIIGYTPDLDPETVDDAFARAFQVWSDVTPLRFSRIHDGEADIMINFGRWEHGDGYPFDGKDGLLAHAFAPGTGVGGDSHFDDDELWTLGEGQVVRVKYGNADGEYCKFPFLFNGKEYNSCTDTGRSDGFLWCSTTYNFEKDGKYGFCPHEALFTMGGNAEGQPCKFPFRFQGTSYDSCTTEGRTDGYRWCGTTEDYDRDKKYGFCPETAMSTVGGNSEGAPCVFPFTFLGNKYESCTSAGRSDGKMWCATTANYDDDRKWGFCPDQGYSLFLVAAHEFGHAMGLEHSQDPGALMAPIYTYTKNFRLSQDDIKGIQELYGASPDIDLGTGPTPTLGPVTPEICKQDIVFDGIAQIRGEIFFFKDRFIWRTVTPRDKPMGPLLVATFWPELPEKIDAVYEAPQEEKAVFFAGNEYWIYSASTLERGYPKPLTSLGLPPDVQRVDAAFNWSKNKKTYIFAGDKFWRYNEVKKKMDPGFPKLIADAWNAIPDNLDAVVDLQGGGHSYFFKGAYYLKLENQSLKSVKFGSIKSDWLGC
Excerpt: Recombinant MMP-2 was purified from the fermentation broth of yeast Pichia pastoris that carries the integrated MMP-2 gene into its chromosome. In brief, the full-length cDNA for MMP-2 was obtained by reverse transcription of RNA from human melanoma A375M cell line by the reverse transcriptase polymerase chain reaction (RT-PCR) using sequence specific oligonucleotides. The nucleotide sequence was confirmed by Taq cycle sequencing. The cDNA was ligated into the Pichia pastoris expression vector pHIL-D2 in such a way that the expression of pro-MMP-2 is under the control of the methanol inducible alcohol oxidase promoter. The expression construct was digested with either SalI or NsiI and used to transform the Pichia pastoris strains KM71 and SMD1168. A large-scale culture of a selected clone designated 24S was performed in a high cell density fermentor and the recombinant MMP-2 was purified from the culture supernatant by gelatin-sepharose 4B (Pharmacia). The enzyme is sufficiently pure at this stage for routine measurement of inhibition. If desired, however, the enzyme may be further purified by AcA 44 gel filtration (Spectra).
The active MMP-2 was obtained by activation of proMMP-2 at 37°C for 1 h with 4-aminophenylmercuric acetate which was then removed by a Sephadex G-50 spin column. The enzyme is assayed using a fluorogenic substrate, Mca-Pro-Leu-Gly-Leu-Dpa-Ala-Arg-NH2, at 37°C in 2.0 mL of assay buffer containing 50 mM Tris, pH 7.6, 0.2 M sodium chloride, 50 mM calcium chloride, 0.02% Brij-35, and 50 µM β-mercaptoethanol. The increase in fluorescence is monitored (λex 328 nm, λem 393 nm). Substrate and inhibitor stock solutions are made in DMF. The enzyme is added at the last to start the reaction. For routine measurement of a Ki value for a reversible, competitive inhibitor, the initial rates in the presence of at least four inhibitor concentrations (two inhibitor concentrations above Ki and two below Ki) are measured using [S] = 1 µM (<<Km) and [MMP-2] = 0.4 nM. Under these conditions, the measured Ki, app is close to true Ki.

MMP-3 = molecular target: T2, MMP-3 (Homo sapiens, UniProt P08254); assay: Determination of inhibition constant (Ki) for MMP-3, fluorogenic substrate assay; format: biochemical; details: substrate Mca-Pro-Leu-Gly-Leu-Dpa-Ala-Arg-NH2, 37°C, pH 7.6, [S] = 1 µM, [MMP-3] = 1 nM
T2 construct: The active MMP-3 was obtained by treatment of proMMP-3 with trypsin; endogenous in cells; host or cells: human rheumatoid synovial fibroblasts stimulated with macrophage-conditioned medium
T2 sequence (P08254 100-477): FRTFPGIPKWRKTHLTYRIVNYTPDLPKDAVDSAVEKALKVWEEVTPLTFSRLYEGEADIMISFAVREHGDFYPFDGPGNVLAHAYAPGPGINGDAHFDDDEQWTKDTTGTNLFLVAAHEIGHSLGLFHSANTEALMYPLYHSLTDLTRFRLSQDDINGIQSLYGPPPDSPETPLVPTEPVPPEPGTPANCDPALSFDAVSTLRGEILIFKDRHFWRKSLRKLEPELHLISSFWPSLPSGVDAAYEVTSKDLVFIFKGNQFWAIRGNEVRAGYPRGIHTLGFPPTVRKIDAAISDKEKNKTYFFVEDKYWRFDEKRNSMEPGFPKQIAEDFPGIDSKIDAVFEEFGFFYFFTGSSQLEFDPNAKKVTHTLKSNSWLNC
Procedure: ProMMP-3 (EC 3.4.24.17; Stromelysin-1) was purified from culture medium of human rheumatoid synovial fibroblasts stimulated with macrophage-conditioned medium according to Okada, Y. et al., J. Biol. Chem. 261, 14245-14255 (1986). The active MMP-3 was obtained by treatment of proMMP-3 with trypsin (5 µg/mL) at 37°C for 30 minutes, followed by addition of soybean trypsin inhibitor (50 µg/mL). Aliquots of the activated MMP-3 were stored at -20°C.
The activated MMP-3 is assayed using a fluorogenic substrate, Mca-Pro-Leu-Gly-Leu-Dpa-Ala-Arg-NH2, Knight, C.G. et al., FEBS Lett. 296, 263-266 (1992), at 37°C in an assay buffer containing 50 mM Tris, pH 7.6, 0.2 M sodium chloride, 50 mM calcium chloride, and 0.02% Brij-35. The increase in fluorescence due to cleavage of Gly-Leu peptide bond by MMP-3 was monitored with Perkin-Elmer LS50B Fluorimeter (λex 328 nm, λem 393 nm, excitation slit 2.5, emission slit 10). Substrate and inhibitor stock solutions were made in DMF and 0.1% HCI-DMF, respectively. For determination of Ki values for MMP-3 inhibitors, a series of intermediate inhibitor solutions were prepared in 0.1% HCl-DMF and 1 or 2 µL of the diluted inhibitor solution was mixed with 1 µL of 2 mM substrate solution in DMF in a quartz cuvette containing 2 mL of assay buffer. The enzyme (10 µL of 0.2 µM MMP-3 dilution in assay buffer) was added at the last to start the reaction. For routine measurement of a Ki value for a reversible, competitive inhibitor, the initial rates in the presence of at least four inhibitor concentrations (two concentrations above Ki and two concentrations below Ki) were measured using [S] = 1 µM (<< Km) and [MMP-3] = 1 nM. Under these conditions, the measured Ki, app is close to true Ki.
The Ki for a competitive inhibitor is calculated using: v0/vi = (1 + [I]/Ki, app) and Ki = Ki, app/(1 + [S]/Km), where v0 is the initial rate in the absence of inhibitor, vi is the initial rate in the presence of inhibitor at the concentration of [I], [S] is the substrate concentration, and Km is the Michaelis constant. If slow binding is observed (i.e. if the approach to the binding equilibrium is slow), the final steady-state rate rather than the initial rate is taken as vi.

Row | SMILES | Ki (MMP-2) [nM] | Ki (MMP-3) [nM]
1 | CC(C)C[C@H](NC(=O)C(S)C(C)C)C(=O)N[C@@H](Cc1ccccc1)C(=O)O (stereo in doubt) [Example 3, (S)-2-Mercapto-3-methylbutyroyl-(L)-leucyl-(L)-phenylalanine] | 784 | 1410
2 | CSCC[C@H](NC(=O)C(S)C(C)C)C(=O)N[C@@H](Cc1ccccc1)C(=O)O (stereo in doubt) [Example 4, (S)-2-Mercapto-3-methylbutyroyl-(L)-methionyl-(L)-phenylalanine] | 798 | 449
3 | CC(C)C(S)C(=O)N[C@@H](CCCCN)C(=O)N[C@@H](Cc1ccccc1)C(=O)O (stereo in doubt) [Example 5, (S)-2-Mercapto-3-methylbutyroyl-(L)-lysyl-(L)-phenylalanine trifluoroacetic acid salt] | 1740 | 1550
4 | CCCC(S)C(=O)N[C@@H](CCc1ccccc1)C(=O)N[C@@H](Cc1ccccc1)C(=O)O (stereo partly shown) [Example 1, 2-Mercapto-pentanoyl-(L)-homo-phenylalanyl-(L)-phenylalanine] | 1800 | 750

Stronger by Ki (MMP-3), values ahead:

Row | Ki (MMP-2) [nM] | Ki (MMP-3) [nM] | SMILES
5 | 731 | 365 | CC(C)[C@H](S)C(=O)N[C@@H](CCc1ccccc1)C(=O)N[C@@H](Cc1ccccc1)C(=O)O [Example 2, (S)-2-Mercapto-3-methylbutyroyl-(L)-homo-phenylalanyl-(L)-phenylalanine]
6 | – | 14 | CCCC(S)C(=O)N[C@@H](CCc1ccccc1)C(=O)N[C@@H](Cc1ccccc1)C(=O)NC (stereo partly drawn) [Example 6, (S)-2-Mercaptopentanoyl-(L)-homo-phenylalanyl-(L)-phenylalanine N-methyl amide]
7 | 3.3 | 10 | CNC(=O)[C@H](Cc1ccccc1)NC(=O)[C@H](CCc1ccccc1)NC(=O)[C@@H](S)C(C)C [Example 7, (S)-2-Mercapto-3-methylbutyroyl-(L)-homo-phenylalanyl-(L)-phenylalanine N-methyl amide]
